One assay deals with E. faecalis DH-5478. In words: Agar well-diffusion assay. In kind it is cell-based. The following applies: Enterococcus faecalis, DH5478; E. faecalis DH-5478; 50 µL of 10 mM per well; read-out: Diameter of Inhibition Zones (AZOI). How it is done:
(§1) The synthesized compounds were initially screened for their in vitro antibacterial activity against the different Gram-positive and Gram-negative bacteria, tested using the agar well-diffusion assay. The turbidity of the bacterial suspensions was established to the 0.5 McFarland turbidity standard. The activity was performed on TS agar plates. The bacteria were spread on the surface of the agar plates, and 10 mm wells were screwed into the agar plates. The assay was performed under aseptic conditions. An aliquot of 50 µL of each tested compound (10 mM) was added to the wells, and the plates were incubated overnight at 37 °C. Both Erythromycin and Amikacin antibiotic disks were used as positive control, while DMSO solvent was used as a negative control in this study. The diameters of inhibition zones were measured and recorded in mm. A comparative study of the synthesized compounds was determined. The experiment was performed in triplicates.

The subject of the next assay is S. aureus DH-432. In words: Agar well-diffusion assay. Particulars: Staphylococcus aureus, DH432; S. aureus DH-432; 50 µL of 10 mM per well; read-out: Diameter of Inhibition Zones (AZOI). The assay is classed as cell-based. The protocol: as §1
The next assay deals with S. pyogenes DH-3467. Kind of assay: Agar well-diffusion assay. The assay is classed as cell-based. Particulars: Streptococcus pyogenes, DH3467; S. pyogenes DH-3467; 50 µL of 10 mM per well; read-out: Diameter of Inhibition Zones (AZOI). The protocol: as §1
Assay [1] deals with E. coli DH-5987. Kind of assay: Agar well-diffusion assay. The assay is classed as cell-based. The following applies: Escherichia coli, DH5987, 50 µL of 10 mM per well, read-out: Diameter of Inhibition Zones (AZOI). How it is done:
as §1

The test system of assay [2] is A. baumannii DH-243. Kind of assay: Agar well-diffusion assay. The assay is classed as cell-based. Particulars: Acinetobacter baumannii, DH243; A. baumannii DH-243; 50 µL of 10 mM per well; read-out: Diameter of Inhibition Zones (AZOI). How it is done: as §1
The subject of assay [3] is E. coli DH-5987. In words: Broth microdilution MIC/MBC. In kind it is cell-based, Escherichia coli. The following applies: for MBC/MIC / MIC / MIC (Mean ± SEM): E. coli DH-5987; for MBC/MIC: value in brackets; for MIC / MBC: Escherichia coli, DH5987; for MIC / MIC (Mean ± SEM): 24 h; for MIC: read-out: MIC (Mean ± SEM); for MBC: E. coli. How it is done:
(§2) The broth microdilution method was taken as a basis to detect the MICs of pyrazole compounds against tested clinical isolates, according to the Clinical Laboratory and Standards Institute guidelines. The broth cultures were used to prepare the bacterial inoculums, and the suspensions were adjusted to the standard 0.5 McFarland turbidity. Stock solutions of the synthesized pyrazoles were prepared in pure DMSO and further serially diluted with TS broth in the concentration range from 128 µg/mL to 0.0625 µg/mL. A well containing noninoculated TS broth, free of any antimicrobial agents, was also included to ensure the medium sterility, while Erythromycin and Amikacin served as positive controls. Bacterial growth was determined by adding 20 µL of 0.5% TTC (2,3,5-triphenyltetrazolium chloride) aqueous solution. […] All experiments were repeated three times. The bactericidal effect from each concentration of the pyrazole and pyrazolo[1,5-a]pyrimidine derivatives showing growth inhibition was further studied. For this study, a loopful of 5 µL was taken from each no-visible growth tube and streaked onto plates of TS agar.

The target of another assay is T1, hCA-II (Homo sapiens, UniProt P00918).
T1 construct: from tissue; host or cells: human erythrocytes (hemolysate)
In words: Carbonic anhydrase isoenzyme inhibition assay. The following applies: for Ki: Lineweaver–Burk graphs. In kind it is biochemical. The protocol:
(§3) The purification of both human cytosolic CA isoforms was carried out as previously described, using a simple one-step procedure of Sepharose-4B-L-tyrosine-sulfanilamide affinity chromatography. […] The carbonic anhydrase isoenzymes’ activities were determined in accordance with the previous study. […] For the designation of the inhibition efficacy of each novel pyrazole and for the pyrazolo[1,5-a]pyrimidine derivatives on both hCA isoenzymes, an activity (%) graph was drawn. The IC50 values were obtained from activity (%) versus compounds plots. The Ki values were calculated using three concentrations for each derivative.

The target in another assay is T2, hCA-I (Homo sapiens, UniProt P00915).
T2 construct: from tissue; host or cells: human erythrocytes (hemolysate)
Kind of assay: Carbonic anhydrase isoenzyme inhibition assay. In kind it is biochemical. The following applies: for Ki: Lineweaver–Burk graphs. The protocol: as §3

In assay [4] the test system is A. baumannii DH-243. In words: Broth microdilution MIC/MBC. The assay is classed as cell-based, Acinetobacter baumannii. The following applies: for MIC: Acinetobacter baumannii, DH243, 24 h, read-out: MIC (Mean ± SEM); for MBC/MIC: value in brackets. How it is done: as §2
A further assay has as its system P. aeruginosa DH-5698. Kind of assay: Agar well-diffusion assay. The assay is classed as cell-based, Pseudomonus aeruginosa. The following applies: Pseudomonas aeruginosa, DH5698; P. aeruginosa DH-5698; 50 µL of 10 mM per well; read-out: Diameter of Inhibition Zones (AZOI). How it is done: as §1
Another assay has as its system C. violaceum CV026. Kind of assay: Quorum-sensing inhibition bioassay on Soft Top agar. In kind it is cell-based, Chromobacterium violaceum. Particulars: CV026 biosensor strain, sub-MIC. How it is done: The anti-QS potential of the tested compounds was explored as described. Briefly, an overnight bacterial suspension of the indicator organism C. violaceum CV026 was prepared in a concentration of 10^6 CFU/mL, and an aliquot of 200 µL was seeded in 5 mm of Soft Top agar (1.3 g agar, 2.0 g tryptone, 1.0 g NaCl, and 200 mL deionized water), supplemented with 20 µL of 0.25 µg/mL C6-HSL (N-hexanoyl-L-homoserine lactone), added as an exogenous AHL source. Wells were cut in the center of the plate after incubation for 30 min and then filled with 50 µL of sub-MICs of each most-active pyrazole hybrid. DMSO was used as a negative control. The plates were incubated at 28 °C for 48 h. Inhibition of violacein production by the indicator strain around the well, indicated by the presence of a white circle surrounded by a purple halo, was considered as positive for QS interference. For further investigation to determine the anti-QS activity for the pyrazole against the biofilm-forming bacterial isolates, an in vitro screening was performed. This was carried out by inoculation of 200 µL from an O/N CV026 culture onto plates of Soft Top agar. Wells of 8 mm diameter were separately made and filled with 90 µL of each biofilm-forming bacterial isolate (10^6 CFU/mL), plus 10 µL of each active pyrazole derivative (sub-MICs). Wells containing the bacterial isolates without treatment were used as controls. The signal diffusion zone diameter produced during the bacterial growth was measured in the presence of pyrazole and pyrazolo[1,5-a]pyrimidine derivatives and compared with the zone diameter of the violacein production by CV026.

Converted amounts (≈) assume the structure as drawn.

T2 sequence (P00915 whole entry): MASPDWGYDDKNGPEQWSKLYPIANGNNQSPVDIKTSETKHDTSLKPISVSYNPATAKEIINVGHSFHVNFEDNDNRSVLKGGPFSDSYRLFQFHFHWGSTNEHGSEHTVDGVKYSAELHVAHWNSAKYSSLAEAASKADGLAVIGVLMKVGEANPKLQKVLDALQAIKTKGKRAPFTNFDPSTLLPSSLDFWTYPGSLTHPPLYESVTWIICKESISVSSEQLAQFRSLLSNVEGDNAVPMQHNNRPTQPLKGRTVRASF

For the compound `CCOC(=O)c1ccc(N=Nc2c(N)n[nH]c2N)cc1` [Compound 3a, Ethyl 4-((3,5-diamino-1H-pyrazol-4-yl)diazenyl)benzoate], the zone of inhibition at 10000 µM worked out at 30.6 mm in the assay with E. faecalis DH-5478; 31.1 mm in the assay on S. aureus DH-432; 31.5 mm with S. pyogenes DH-3467; 32 mm in the assay on E. coli DH-5987 [1]; 29.3 mm in the assay on A. baumannii DH-243 [2]; 30.8 mm with P. aeruginosa DH-5698. The MBC/MIC with E. coli DH-5987 [3] and with A. baumannii DH-243 [4] was 0.5 in each case. The values for the MIC with E. coli DH-5987 [3] and in the assay on A. baumannii DH-243 [4] were 0.0625 ± 0.4 µg/mL (≈ 0.228 µM) and 0.25 ± 0.2 µg/mL (≈ 0.911 µM), respectively. Further, the IC50 stood at 73.2 nM on hCA-II and 92.3 nM against hCA-I. In addition, the Ki on hCA-II worked out at 91.8 nM; on hCA-I, 88.8 nM. Also, in the assay on C. violaceum CV026, the “Concentration at which anti-QS activity (visible halo zone) was observed” value (“Concentration at which anti-QS activity” for short) was found to be 0.0625 µg/mL.

`CCOC(=O)c1ccc(N=Nc2c(N=Cc3ccc(N(C)C)cc3)n[nH]c2N)cc1` [Compound 5a, Ethyl 4-((5-amino-3-((4-(dimethylamino)benzylidene)amino)-1H-pyrazol-4-yl)diazenyl)benzoate]: the zone of inhibition at 10000 µM in the assay with E. faecalis DH-5478 is 28.2 mm; with S. aureus DH-432, 28.6 mm; in the assay with S. pyogenes DH-3467 it was 28.9 mm; in the assay on E. coli DH-5987 [1], 29.9 mm; in the assay on A. baumannii DH-243 [2], 28 mm; in the assay with P. aeruginosa DH-5698, 28.3 mm. Also, the MBC/MIC in the assay with E. coli DH-5987 [3] and in the assay on A. baumannii DH-243 [4] was 0.5 each time. In addition, the results for the minimal inhibitory concentration (MIC) in the assay with E. coli DH-5987 [3] and with A. baumannii DH-243 [4] were 0.25 µg/mL (≈ 0.617 µM) and 0.5 ± 0.3 µg/mL (≈ 1.23 µM), respectively. Besides, the IC50 against hCA-II worked out at 161 nM; against hCA-I it was 138 nM. For the same compound, the inhibition constant (Ki) amounted to 144 nM on hCA-II and 176 nM at hCA-I. For the same compound, the “Concentration at which anti-QS activity” value in the assay on C. violaceum CV026 came to 0.187 µg/mL.

With `CCOC(=O)c1ccc(N=Nc2c(N)nn3c(C)cc(C)nc23)cc1` [Compound 6, ethyl-4-((2-amino-5,7-dimethylpyrazolo[1,5-a]pyrimidin-3-yl)diazenyl)benzoate], the zone of inhibition at 10000 µM in the assay on E. faecalis DH-5478 worked out at 29.5 mm; in the assay on S. aureus DH-432, 29.5 mm; in the assay with S. pyogenes DH-3467, 30.2 mm; in the assay on E. coli DH-5987 [1], 31 mm; with A. baumannii DH-243 [2], 28.8 mm; with P. aeruginosa DH-5698, 28.8 mm. The MBC/MIC against E. coli DH-5987 [3] and with A. baumannii DH-243 [4] was 0.5 throughout. Besides, the MIC in the assay on E. coli DH-5987 [3] is 0.25 ± 0.1 µg/mL (≈ 0.739 µM); with A. baumannii DH-243 [4], 0.5 ± 0.1 µg/mL (≈ 1.48 µM). Further, the half-inhibitory concentration (IC50) on hCA-II came out at 130 nM; at hCA-I it was 169 nM. Further, the inhibitory constant (Ki) on hCA-II was determined as 146 nM; on hCA-I, 153 nM. The “Concentration at which anti-QS activity” value with C. violaceum CV026 is 0.125 µg/mL.

Take `CCOC(=O)c1ccc(N=Nc2c(N)nn3c(N)c(C#N)c(-c4ccc(N(C)C)cc4)nc23)cc1` [Compound 9a, Ethyl-4-((2,7-diamino-6-cyano-5-(4-(dimethylamino)phenyl)pyrazolo[1,5-a]pyrimidin-3-yl)diazenyl)benzoate]: the zone of inhibition at 10000 µM amounted to 28.7 mm in the assay with E. faecalis DH-5478; 29.1 mm in the assay on S. aureus DH-432; 29.3 mm in the assay on S. pyogenes DH-3467; 30.4 mm in the assay on E. coli DH-5987 [1]; 28.4 mm in the assay on A. baumannii DH-243 [2]; 28.5 mm in the assay with P. aeruginosa DH-5698. The “MIC (Mean ± SEM)” value in the assay with E. coli DH-5987 [3] came out at 0.125 ± 0.1 µg/mL (≈ 0.266 µM). Also, the MBC/MIC with E. coli DH-5987 [3] and in the assay on A. baumannii DH-243 [4] was 0.5 throughout. The compound also registered an MBC against E. coli DH-5987 [3] of 0.0625 µg/mL (≈ 0.133 µM). In addition, the MIC in the assay with E. coli DH-5987 [3] is 0.125 µg/mL (≈ 0.266 µM); in the assay on A. baumannii DH-243 [4], 0.375 ± 0.2 µg/mL (≈ 0.799 µM). Also, the IC50 against hCA-II came to 142 nM; at hCA-I it was 123 nM. The figures for the inhibition constant Ki at hCA-II and on hCA-I were 136 nM and 102 nM, respectively. Moreover, in the assay with C. violaceum CV026, the “Concentration at which anti-QS activity” value is listed as 0.187 µg/mL.

Turning to `CCOC(=O)c1ccc(N=Nc2c(N)nn3c(O)c(C#N)c(-c4ccc(N(C)C)cc4)nc23)cc1` [Compound 10a, Ethyl-4-((2-amino-6-cyano-5-(4-(dimethylamino)phenyl)-7-hydroxypyrazolo[1,5-a]pyrimidin-3-yl)diazenyl)benzoate], the zone of inhibition at 10000 µM came to 29.8 mm in the assay with E. faecalis DH-5478; 30.6 mm in the assay on S. aureus DH-432; 30.7 mm with S. pyogenes DH-3467; 31.5 mm in the assay on E. coli DH-5987 [1]; 29.1 mm with A. baumannii DH-243 [2]; 30.1 mm in the assay on P. aeruginosa DH-5698. The “MIC (Mean ± SEM)” value in the assay with E. coli DH-5987 [3] is recorded as 0.125 ± 0.2 µg/mL (≈ 0.266 µM). Besides, in the assay with E. coli DH-5987 [3], the MBC is 0.0625 µg/mL (≈ 0.133 µM). Also, the values for the MIC with E. coli DH-5987 [3] and in the assay with A. baumannii DH-243 [4] were 0.125 µg/mL (≈ 0.266 µM) and 0.375 ± 0.4 µg/mL (≈ 0.797 µM), respectively. The half-inhibitory concentration (IC50) was determined as 122 nM against hCA-II and 153 nM on hCA-I. The results for the Ki at hCA-II and at hCA-I were 139 nM and 144 nM, respectively. This compound also had an MBC/MIC in the assay on A. baumannii DH-243 [4] of 0.5. Further, in the assay with C. violaceum CV026, the “Concentration at which anti-QS activity” value turned out to be 0.0625 µg/mL.

The record behind these values is paper PMC9854762, “Antibiofilm and Anti-Quorum-Sensing Activities of Novel Pyrazole and Pyrazolo[1,5-a]pyrimidine Derivatives as Carbonic Anhydrase I and II Inhibitors: Design, Synthesis, Radiosterilization, and Molecular Docking Studies” (Antibiotics, 2023).
